Data set [1] relates to HL-60. Description: Granulocyte differentiation (NBT reduction, morphology) and viability by trypan blue exclusion. The conditions noted are these: Homo sapiens, HL-60, read-out: Cell viability. On the procedure:
The number of NBT positive cells was determined after 4 [solid bars] or 7 days [hatched bar] of treatment. […] Glutamine Starvation (Gln, < 0.06 mM) was as described (18).
The ability of cells to reduce nitroblue tetrazolium (NBT) is indicative of oxidase activity which is characteristic of the more mature forms of human bone marrow granulocytes. NBT reduction thus serves as an indicator of granulocyte differentiation. […] Glutamine starvation (Gln, < 0.06 mM) was as described. […] DON, ACV and HPA are glutamine antagonists.

For data set [2], the system named is premalignant 10T1/2 cells. Description: cells. The conditions noted are these: for adipocyte conversion: glutamine antagonists; for Differentiation at 1 mM: sodium salts; for DC50: Mus musculus, Adipocyte, read-out: DC50, concentration of compound causing 50% differentiation. On the procedure: C. Quantitation of adipocytosis. Lipids stained with Oil-Red O were extracted with butanol, and the optical density at 510 nm determined.
Lower: Quantitation of adipocytosis. Cells were fixed with 37% formaldehyde and stained with Oil-Red O. The stained intracellular lipid was extracted with butanol, and the optical density was determined using a Titertek Multiskan MC, manufactured by Flow Laboratories, at a wavelength 510 nm.

Data set [3] has as its system 4C8a10 cells (revertants of Haras-transformed NIH3T3 fibroblasts). Description: Tumor formation of cells pretreated in culture and injected s.c. into athymic nude mice. The class given is in vivo. As to conditions: cells pretreated with 5-AzadC 0.1 µM, after 3 weeks. An excerpt:
One-two weeks later the cells were transplanted subcutaneously into athymic mice.
(§1) The experimental model involved nonmalignant 4C8a10 cells (revertants of Haras-transformed NIH3T3 fibroblasts). […]
Frederick Cancer Research Facility).

Data set [4] deals with C3H 10T1/2 Cells. Description: Tumorigenicity of treated cells in athymic mice. The conditions noted are these: time 8 weeks. On the procedure:
Premalignant cells (3-4 x 10^5) were plated in 75 cm^2 dishes and 5-AzadC 0.1 µM was added to the growth medium at 20 and 48 hrs after plating. The cells were then subcultured in the absence of the nucleoside analog for an additional seven weeks. […] For the tumorigenicity assay, 4-5 week-old female athymic nude mice were inoculated s.c. with 1 x 10^6 cells and observed for tumor growth at the site of injection.

The subject of data set [5] is 4C8a10 cells. Description: Malignant phenotype in culture / growth on matrigel. The class given is cell-based. On the procedure: as §1
^b Cells were plated on top of matrigel (reconstituted basement membrane) and observed for malignant growth pattern, i.e., active replication, development of characteristic processes, and invasion.

Data set [6] concerns 10T1/2 cells. Nature of the data set: Neoplastic foci formation in culture. An excerpt: […] The cells were then subcultured in the absence of the nucleoside analog for an additional seven weeks. […] For the tumorigenicity assay, 4-5 week-old female athymic nude mice were inoculated s.c. with 1 x 10^6 cells and observed for tumor growth at the site of injection.
Data set [7] has as its system Leukemia K562. Description: Tumor cell growth / proliferation. As to conditions: K562 cell line.
Data set [8] has as its system Erythroleukemia K562 cells. Description: Induction of hemoglobin synthesis (benzidine staining, protein quantitation). As to conditions: HU 100 µM, seven days.
In data set [9] the test system is Prostate Adenocarcinoma PC3. Description: Tumor cell growth / proliferation. The class given is cell-based. As to conditions: Homo sapiens, PC-3. On the procedure:
Studies of depth were performed with two androgenindependent human prostate adenocarcinoma cell lines, PC3 and DU145, established from bone and brain metastases, respectively.

For data set [10], the system named is Malignant Melanoma A375. Description: Tumor cell growth / proliferation.

For `[N-]=[N+]=CC(=O)CC[C@H](N)C(=O)O` [DON, 6-diazo-5-oxo-L-norleucine], in data set [1], the viability at 25 µg/mL came to 75% and the viability at 30 µg/mL came out at 75%. In [2], the adipocyte conversion entry is “neither glutamine starvation nor by treatment with glutamine antagonists such as DON and ACV resulted in adipocyte conversion”.

Take `Nc1ncn([C@H]2C[C@H](O)[C@@H](CO)O2)c(=O)n1` [5-AzadC, 5-aza-2'-deoxycytidine, reference compound]: in data set [3] (5x10^5 cells per site s.c.), the “Tumor Formation Incidence” value is reported as 8/8. Moreover, the “Tumor Formation Size, mean (range)” value in data set [3] is 11.5 (4-19) mm. In addition, the “Tumors Incidence” value in data set [4] (5-AzadC 0.1 µM at 20 and 48 hrs after plating, 1 x 10^6 cells s.c.) was 8/8. Also, the “Tumors Diameter” value in [4] (5-AzadC 0.1 µM) was 5.5 ± 2.5 mm ± S.D. The Growth on matrigel entry in [5] (5-AzadC 0.1 µM) is “+”. Moreover, in data set [5] (transient treatment of premalignant cells), the “time until malignant conversion evident” value is given as at most 2 days. Moreover, the “frequency of foci of neoplastically transformed cells” value in [6] is listed as “about 7x10^-4”.

Take `O=C(O)Cc1ccc(O)cc1O` [2,4-dihydroxyphenylacetate]: the toxicity entry in [7] is on record as “highly toxic”.

On to `O=C(O)Cc1cccc(Cl)c1` [3-chlorophenylacetate], for which, in data set [2], the “Differentiation at 1 mM” value was 80% and the DC50 worked out at 500 µM.

With `NC(=O)NO` [HU, hydroxyurea, reference compound], in [8], the “Benzidine Positive Cells” value worked out at 17.2%.

With `O=C(O)Cc1ccc(Cl)cc1` [4-chlorophenylacetate], in [2], the “Differentiation at 1 mM” value is given as 50% and the DC50 is 1000 µM.

As for `O=C(O)Cc1c(Cl)cccc1Cl` [2,6-dichlorophenylacetate], in data set [2], the “Differentiation at 1 mM” value came to 75% and the DC50 came out at 500 µM.

As to `O=C(O)Cc1cc(O)cc(O)c1`, the toxicity entry in [7] is “highly toxic”.

Molecule `Cc1ccc(C(=O)Nc2ccc(S(=O)(=O)O)c3cc(S(=O)(=O)O)cc(S(=O)(=O)O)c23)cc1NC(=O)c1cccc(NC(=O)Nc2cccc(C(=O)Nc3cc(C(=O)Nc4ccc(S(=O)(=O)O)c5cc(S(=O)(=O)O)cc(S(=O)(=O)O)c45)ccc3C)c2)c1` [Suramin, suramin] came in with an activity at 75 µg/mL in data set [9] (Suramin 75 µg/ml) of 58.5%. In data set [9] (Suramin 150 µg/ml), this molecule had an activity at 150 µg/mL of 46.5%. Also, the activity at 300 µg/mL in data set [9] (Suramin 300 µg/ml) turned out to be 31%. For the same molecule, the Growth is recorded as 78.3 % of control in data set [10] (Suramin 38 µg/ml), 56.8 % of control in data set [10] (Suramin 75 µg/ml), 38.6 % of control in data set [10] (Suramin 150 µg/ml) and 26.6 % of control in data set [10] (Suramin 300 µg/ml). For the same molecule, the Viability is above 95% in [10] (Suramin 38 µg/ml), above 95% in data set [10] (Suramin 75 µg/ml), 92% in data set [10] (Suramin 150 µg/ml) and 82% in data set [10] (Suramin 300 µg/ml).

On to `N[C@H](C(=O)O)[C@@H]1CC(Cl)=NO1` [ACV, acivicin], for which, in data set [1], the viability at 1 µg/mL was found to be 63% and the viability at 3 µg/mL was determined as 63%. Besides, the adipocyte conversion entry in data set [2] was “neither glutamine starvation nor by treatment with glutamine antagonists such as DON and ACV resulted in adipocyte conversion”.

On to `O=C(O)Cc1cccc2ccccc12` [1-naphthylacetate], for which, in data set [2], the “Differentiation at 1 mM” value is above 95% and the DC50 was below 100 µM.

Regarding `O=C(O)Cc1ccc(F)cc1` [4-fluorophenylaceatae], in data set [2], the “Differentiation at 1 mM” value was found to be 65% and the DC50 turned out to be 700 µM.

A word on the viability: it is the share of living cells, or the viability signal relative to a control.

For the origin of these results see patent EP0567613B1, “COMPOSITIONS FOR THERAPY AND PREVENTION OF CANCER” (The Government of the United States of America, as …, priority 1991, dated 1993).
